{"source": "patent US8841233B2", "about": "“Herbicidal compositions comprising 4-amino-3-chloro-5-fluoro-6-(4-chloro-2-fluoro-3-methoxyphenyl) pyridine-2-carboxylic acid or a derivative thereof and 4-hydroxyphenyl-pyruvate dioxygenase (HPPD) inhibitors” (Dow Agrosciences LLC, priority 2012, dated 2014)", "test_in_all_cases": "In-water applied weed control, transplanted paddy rice, greenhouse (Example II)", "key": {"FIMMI": {"test_system": "FIMMI", "type": "in vivo, Fimbristylis miliacea (L.) Vahl", "method": "(§1) Evaluation of in-Water Applied Herbicidal Mixtures for Weed Control in Transplanted Paddy Rice\n(§2) Weed seeds or nutlets of the desired test plant species were planted in puddled soil (mud) prepared by mixing a shredded, non-sterilized mineral soil (50.5 percent silt, 25.5 percent clay, and 24 percent sand, with a pH of about 7.6 and an organic matter content of about 2.9 percent) and water at a 1:1 volumetric ratio. The prepared mud was dispensed in 365 mL aliquots into 16-ounce (oz.) non-perforated plastic pots with a surface area of 86.59 square centimeters (cm^2) leaving a headspace of 3 centimeters (cm) in each pot. Mud was allowed to dry overnight prior to planting or transplanting. Rice seeds were planted in Sun Gro MetroMix® 306 planting mixture, which typically has a pH of 6.0 to 6.8 and an organic matter content of about 30 percent, in plastic plug trays. Seedlings at the second or third leaf stage of growth were transplanted into 840 mL of mud contained in 32-oz. non-perforated plastic pots with a surface area of 86.59 cm^2 4 days prior to herbicide application. The paddy was created by filling the headspace of the pots with 2.5 to 3 cm of water. When required to ensure good germination and healthy plants, a fungicide treatment and/or other chemical or physical treatment was applied. The plants were grown for 4-22 days in a greenhouse with an approximate 14 h photoperiod which was maintained at about 29′C during the day and 26° C. during the night. Nutrients were added as Osmocote® (19:6:12, N:P:K+ minor nutrients) at 2 g per 16-oz. pot and 4 g per 32-oz. pot. Water was added on a regular basis to maintain the paddy flood, and supplemental lighting was provided with overhead metal halide 1000-Watt lamps as necessary. The plants were employed for testing when they reached the first through fourth true leaf stage.\n(§3) Treatments consisted of the acid or esters of 4-amino-3-chloro-5-fluoro-6-(4-chloro-2-fluoro-3-methoxy-phenyl)pyridine-2-carboxylic acid (compound A) each formulated as an SC (suspension concentrate) and various herbicidal components alone and in combination. Forms of compound A were applied on an acid equivalent basis.\n(§4) Other herbicidal components were applied on an active ingredient basis and included 4-hydroxyphenyl pyruvate dioxygenase (HPPD)-inhibiting herbicides mesotrione formulated as Callisto®, sulcotrione formulated as Mikado®, pyrazolynate formulated as Sunbird® 10% GR, and benzobicyclon formulated as Benzobicyclon 3.5% or technical material.\n(§5) Treatment requirements for each compound or herbicidal component were calculated based upon the rates being tested, the concentration of active ingredient or acid equivalent in the formulation, an application volume of 2 mL per component per pot, and an application area of 86.59 cm^2 per pot.\n(§6) For formulated compounds, a measured amount was placed in an individual 100 or 200 mL glass vial and was dissolved in a volume of 1.25% (v/v) Agri-Dex® crop oil concentrate to obtain application solutions.\n(§7) For technical grade compounds, a weighed amount was placed in an individual 100 to 200 mL glass vial and was dissolved in a volume of acetone to obtain concentrated stock solutions. […] The concentrated stock solutions obtained were diluted with an equivalent volume of an aqueous mixture containing 2.5% (v/v) crop oil concentrate so that the final application solutions contained 1.25% (v/v) crop oil concentrate.\n(§8) Applications were made by injecting with a pipetter appropriate amounts of the application solutions, individually and sequentially, into the aqueous layer of the paddy. Control plants were treated in the same manner with the solvent blank. Applications were made so that all treated plant material received the same concentrations of acetone and crop oil concentrate.\n(§9) The treated plants and control plants were placed in a greenhouse as described above and water was added as needed to maintain a paddy flood. […]"}, "SCPMA": {"test_system": "SCPMA", "type": "in vivo", "method": "as §1, §2, §3, §4, §5, §6, §7, §8, §9"}, "LEFCH": {"test_system": "LEFCH", "type": "in vivo, Leptochloa chinensis (L.) Nees", "method": "as §1, §2, §3, §4, §5, §6, §7, §8, §9"}}}
{"smiles": "COc1c(Cl)ccc(-c2nc(C(=O)O)c(Cl)c(N)c2F)c1F", "note": "[Compound A Acid, 4-amino-3-chloro-6-(4-chloro-2-fluoro-3-methoxyphenyl)-5-fluoropyridine-2-carboxylic acid]", "values": [{"measurement": "Visual Weed Control (%) - 21 DAA FIMMI Obs", "setting": "FIMMI; 17.5 gae/ha", "result": 85, "unit": "%"}, {"measurement": "Visual Weed Control (%) - 21 DAA FIMMI Obs", "setting": "FIMMI; 35 gae/ha", "result": 85, "unit": "%"}, {"measurement": "Visual Weed Control (%) - 21 DAA SCPMA Obs", "setting": "SCPMA; 8.75 gae/ha", "result": 0, "unit": "%"}, {"measurement": "Visual Weed Control (%) - 21 DAA SCPMA Obs", "setting": "SCPMA; 17.5 gae/ha", "result": 0, "unit": "%"}, {"measurement": "Visual Weed Control (%) - 21 DAA SCPMA Obs", "setting": "SCPMA; 35 gae/ha", "result": 0, "unit": "%"}, {"measurement": "Visual Weed Control (%) - 21 DAA LEFCH Obs", "setting": "LEFCH; 8.75 gae/ha", "result": 0, "unit": "%"}, {"measurement": "Visual Weed Control (%) - 21 DAA LEFCH Obs", "setting": "LEFCH; 17.5 gae/ha", "result": 0, "unit": "%"}]}
{"smiles": "COc1c(Cl)ccc(-c2nc(C(=O)OCc3ccccc3)c(Cl)c(N)c2F)c1F", "note": "[Compound A Benzyl Ester, benzyl ester of 4-amino-3-chloro-5-fluoro-6-(4-chloro-2-fluoro-3-methoxy-phenyl)pyridine-2-carboxylic acid]", "values": [{"measurement": "Visual Weed Control (%) - 21 DAA FIMMI Obs", "setting": "FIMMI; 8 gae/ha", "result": 15, "unit": "%"}, {"measurement": "Visual Weed Control (%) - 21 DAA FIMMI Obs", "setting": "FIMMI; 16 gae/ha", "result": 65, "unit": "%"}, {"measurement": "Visual Weed Control (%) - 21 DAA SCPMA Obs", "setting": "SCPMA; 4.38 gae/ha", "result": 0, "unit": "%"}, {"measurement": "Visual Weed Control (%) - 21 DAA SCPMA Obs", "setting": "SCPMA; 8 gae/ha", "result": 0, "unit": "%"}, {"measurement": "Visual Weed Control (%) - 21 DAA SCPMA Obs", "setting": "SCPMA; 8.75 gae/ha", "result": 0, "unit": "%"}, {"measurement": "Visual Weed Control (%) - 21 DAA SCPMA Obs", "setting": "SCPMA; 16 gae/ha", "result": 0, "unit": "%"}, {"measurement": "Visual Weed Control (%) - 21 DAA SCPMA Obs", "setting": "SCPMA; 17.5 gae/ha", "result": 0, "unit": "%"}, {"measurement": "Visual Weed Control (%) - 21 DAA SCPMA Obs", "setting": "SCPMA; 32 gae/ha", "result": 0, "unit": "%"}, {"measurement": "Visual Weed Control (%) - 21 DAA SCPMA Obs", "setting": "SCPMA; 48 gae/ha", "result": 0, "unit": "%"}, {"measurement": "Visual Weed Control (%) - 21 DAA SCPMA Obs", "setting": "SCPMA; 96 gae/ha", "result": 0, "unit": "%"}, {"measurement": "Visual Weed Control (%) - 21 DAA LEFCH Obs", "setting": "LEFCH; 4.38 gae/ha", "result": 15, "unit": "%"}, {"measurement": "Visual Weed Control (%) - 21 DAA LEFCH Obs", "setting": "LEFCH; 8.75 gae/ha", "result": 15, "unit": "%"}]}
